The values below come from PubChem BioAssay (NCI).

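A five-concentration, 48-hour dose response in 96-well plates underlies each endpoint, interpolated linearly between surrounding concentrations. At the TGI there is no net growth.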

The first experiment deals with TK-10 renal. Put plainly: NCI tumour cell line growth inhibition, 48 h.
`O=C(/C=C/c1ccc(OCc2cccc(Cl)c2)cc1)NO` came in with a TGI of 67.1 µM.

Compound `COc1cc(C(C)=O)cc(C(=O)N(C(C)C)C(C)C)c1[Si](C)(C)C` returned a TGI greater than 100 µM.

Compound `COc1ccc(-c2nc(-c3cc4c(ccc5ccccc54)oc3=O)cs2)cc1` gave a TGI greater than 100 µM.

As for `Cc1c(C)n(-c2ccccc2)c2nc(S(C)(=O)=O)nc(S(C)(=O)=O)c12`, the TGI is 3.55 µM.

Take `CCOC(=O)c1nc2ccc(C(F)(F)F)cc2[nH]c1=O`: the TGI is greater than 100 µM.

As to `CCC(=O)O[C@H]1CC[C@H]2[C@@H]3CCC4=C/C(=N/OC(=O)c5cccc6c(=O)c7ccccc7[nH]c56)CC[C@]4(C)[C@H]3CC[C@]12C`, the TGI is greater than 100 µM.

Take `COc1ccc2[nH]c3c(c2c1)CC(=S)N1CCCC(CC3=O)C1` (configuration not stated): the TGI is greater than 100 µM.

`O=C(O/C=C\OC1CCCC1(c1ccccc1)c1ccccc1)c1ccccc1` (configuration not stated): the TGI was 17.9 µM.

The test system of a further experiment is OVCAR-4 ovarian. Put plainly: NCI tumour cell line growth inhibition, 48 h.
As for `CCCCCCCCCCCCC/C=C/[C@@H](O)[C@H](COC1OC(CO)C(OC2OC(CO)C(O)C(OC3(C(=O)O)CC(O)C(NC(C)=O)C(C(O)C(O)CO)O3)C2O)C(O)C1O)N=[N+]=[N-]` (some centres not stated), the TGI was greater than 100 µM.

Turning to `COc1ccc2c(c1)C(=O)OCCC2`, the TGI is greater than 100 µM.

Compound `CCOC(=O)c1c(NC(=O)OC)c(C#N)c2n1CCCCC2` registered a TGI greater than 100 µM.

On to `O=C(/C=C/c1ccc(OCc2cccc(Cl)c2)cc1)NO`, for which the TGI came to 38 µM.

`COc1cc(C(C)=O)cc(C(=O)N(C(C)C)C(C)C)c1[Si](C)(C)C` displayed a TGI greater than 100 µM.

Take `COc1ccc(-c2nc(-c3cc4c(ccc5ccccc54)oc3=O)cs2)cc1`: the TGI is greater than 100 µM.

In turn, `Cc1c(C)n(-c2ccccc2)c2nc(S(C)(=O)=O)nc(S(C)(=O)=O)c12` gave a TGI of 3.13 µM.

Regarding `Cc1ccccc1N/C(=C(/C(Cl)=C(Cl)Cl)[N+](=O)[O-])n1nnc2ccccc21`, the TGI was determined as 34 µM.

With `CCOC(=O)c1nc2ccc(C(F)(F)F)cc2[nH]c1=O`, the TGI is greater than 100 µM.

Compound `CCC(=O)O[C@H]1CC[C@H]2[C@@H]3CCC4=C/C(=N/OC(=O)c5cccc6c(=O)c7ccccc7[nH]c56)CC[C@]4(C)[C@H]3CC[C@]12C` showed a TGI greater than 100 µM.

The compound `COc1ccc2[nH]c3c(c2c1)CC(=S)N1CCCC(CC3=O)C1` (configuration not stated) gave a TGI greater than 100 µM.

For `O=C(O/C=C\OC1CCCC1(c1ccccc1)c1ccccc1)c1ccccc1` (configuration not stated), the TGI came out at 9.8 µM.

In a further experiment the test system is SK-MEL-2 melanoma. Description: NCI tumour cell line growth inhibition, 48 h.
In the case of `CCCCCCCCCCCCC/C=C/[C@@H](O)[C@H](COC1OC(CO)C(OC2OC(CO)C(O)C(OC3(C(=O)O)CC(O)C(NC(C)=O)C(C(O)C(O)CO)O3)C2O)C(O)C1O)N=[N+]=[N-]` (some centres not stated), the TGI amounted to 49.7 µM.

`COc1ccc2c(c1)C(=O)OCCC2` displayed a TGI greater than 100 µM.

Take `CCOC(=O)c1c(NC(=O)OC)c(C#N)c2n1CCCCC2`: the TGI was greater than 100 µM.

Consider `O=C(/C=C/c1ccc(OCc2cccc(Cl)c2)cc1)NO`, for which the TGI is 53.7 µM.

Turning to `COc1cc(C(C)=O)cc(C(=O)N(C(C)C)C(C)C)c1[Si](C)(C)C`, the TGI is greater than 100 µM.

As for `COc1ccc(-c2nc(-c3cc4c(ccc5ccccc54)oc3=O)cs2)cc1`, the TGI is greater than 100 µM.

With `Cc1cc(C)c(C(=O)c2nnc3ccccc3c2N)c(C)c1`, the TGI turned out to be 31.9 µM.

`Cc1c(C)n(-c2ccccc2)c2nc(S(C)(=O)=O)nc(S(C)(=O)=O)c12` had a TGI of 4.21 µM.

For the compound `Cc1ccccc1N/C(=C(/C(Cl)=C(Cl)Cl)[N+](=O)[O-])n1nnc2ccccc21`, the TGI was 33 µM.

For the compound `CCOC(=O)c1nc2ccc(C(F)(F)F)cc2[nH]c1=O`, the TGI is greater than 100 µM.

Turning to `CCC(=O)O[C@H]1CC[C@H]2[C@@H]3CCC4=C/C(=N/OC(=O)c5cccc6c(=O)c7ccccc7[nH]c56)CC[C@]4(C)[C@H]3CC[C@]12C`, the TGI came to 75.5 µM.

The compound `COc1ccc2[nH]c3c(c2c1)CC(=S)N1CCCC(CC3=O)C1` (configuration not stated) came in with a TGI of 81.2 µM.

`O=C(O/C=C\OC1CCCC1(c1ccccc1)c1ccccc1)c1ccccc1` (configuration not stated) displayed a TGI of 15 µM.

The subject of a further experiment is HCT-15 colon. Description: NCI tumour cell line growth inhibition, 48 h.
Regarding `CCCCCCCCCCCCC/C=C/[C@@H](O)[C@H](COC1OC(CO)C(OC2OC(CO)C(O)C(OC3(C(=O)O)CC(O)C(NC(C)=O)C(C(O)C(O)CO)O3)C2O)C(O)C1O)N=[N+]=[N-]` (some centres not stated), the TGI is greater than 100 µM.

Compound `COc1ccc2c(c1)C(=O)OCCC2` gave a TGI greater than 100 µM.

Compound `CCOC(=O)c1c(NC(=O)OC)c(C#N)c2n1CCCCC2` had a TGI greater than 100 µM.

Take `O=C(/C=C/c1ccc(OCc2cccc(Cl)c2)cc1)NO`: the TGI turned out to be 20.8 µM.

On to `COc1cc(C(C)=O)cc(C(=O)N(C(C)C)C(C)C)c1[Si](C)(C)C`, for which the TGI was greater than 100 µM.

The compound `COc1ccc(-c2nc(-c3cc4c(ccc5ccccc54)oc3=O)cs2)cc1` returned a TGI greater than 100 µM.

`Cc1c(C)n(-c2ccccc2)c2nc(S(C)(=O)=O)nc(S(C)(=O)=O)c12`: the TGI was found to be 3.31 µM.

`Cc1ccccc1N/C(=C(/C(Cl)=C(Cl)Cl)[N+](=O)[O-])n1nnc2ccccc21` yielded a TGI of 31.6 µM.

`CCOC(=O)c1nc2ccc(C(F)(F)F)cc2[nH]c1=O` returned a TGI greater than 100 µM.

The compound `CCC(=O)O[C@H]1CC[C@H]2[C@@H]3CCC4=C/C(=N/OC(=O)c5cccc6c(=O)c7ccccc7[nH]c56)CC[C@]4(C)[C@H]3CC[C@]12C` yielded a TGI of 61.9 µM.

In turn, `COc1ccc2[nH]c3c(c2c1)CC(=S)N1CCCC(CC3=O)C1` (configuration not stated) registered a TGI greater than 100 µM.

For `O=C(O/C=C\OC1CCCC1(c1ccccc1)c1ccccc1)c1ccccc1` (configuration not stated), the TGI was determined as 5.72 µM.

Another experiment deals with COLO 205 colon. Description: NCI tumour cell line growth inhibition, 48 h.
`CCCCCCCCCCCCC/C=C/[C@@H](O)[C@H](COC1OC(CO)C(OC2OC(CO)C(O)C(OC3(C(=O)O)CC(O)C(NC(C)=O)C(C(O)C(O)CO)O3)C2O)C(O)C1O)N=[N+]=[N-]` (some centres not stated) came in with a TGI of 33.9 µM.

Regarding `COc1ccc2c(c1)C(=O)OCCC2`, the TGI is greater than 100 µM.

`CCOC(=O)c1c(NC(=O)OC)c(C#N)c2n1CCCCC2` gave a TGI greater than 100 µM.

Compound `O=C(/C=C/c1ccc(OCc2cccc(Cl)c2)cc1)NO` returned a TGI of 32 µM.

`COc1cc(C(C)=O)cc(C(=O)N(C(C)C)C(C)C)c1[Si](C)(C)C`: the TGI is greater than 100 µM.

`COc1ccc(-c2nc(-c3cc4c(ccc5ccccc54)oc3=O)cs2)cc1`: the TGI was greater than 100 µM.

For the compound `Cc1cc(C)c(C(=O)c2nnc3ccccc3c2N)c(C)c1`, the TGI stood at 30.2 µM.
